Results from ChEMBL document CHEMBL1806406, “Antiplasmodial and cytotoxicity evaluation of 3-functionalized 2-azetidinone derivatives” (Bioorg Med Chem Lett, 2011).

What was measured:
Plasmodium falciparum [1] = assay: Antiplasmodial activity against chloroquine-sensitive Plasmodium falciparum D10; format: functional, organism-based
Plasmodium falciparum [2] = assay: Antiplasmodial activity against chloroquine-resistant Plasmodium falciparum W2; format: functional, organism-based
KB [3] = assay: Cytotoxicity against human KB cells assessed as growth inhibition at 100 uM; format: functional; settings: read-out: GI
KB [4] = assay: Cytotoxicity against human KB cells assessed as growth inhibition; format: functional, cell-based
KB [5] = assay: Cytotoxicity against human KB cells assessed as growth inhibition at 10 uM; format: functional; settings: read-out: GI
Plasmodium falciparum [6] = assay: Antiplasmodial activity against chloroquine-resistant Plasmodium falciparum K1; format: functional, organism-based
Plasmodium falciparum [7] = assay: Antiplasmodial activity against chloroquine-sensitive Plasmodium falciparum 3D7; format: functional, organism-based
KB [8] = assay: Cytotoxicity against human KB cells assessed as growth inhibition at 0.5 uM; format: functional; settings: read-out: GI

[N-]=[N+]=N[C@@H]1C(=O)N(c2ccccc2)[C@@H]1/C=C/c1ccccc1
IC50 (Plasmodium falciparum [1]): 10.3 µM

Cc1ccc(N2C(=O)[C@@H](N=[N+]=[N-])[C@H]2/C=C/c2ccccc2)cc1
IC50 (Plasmodium falciparum [1]): 5.83 µM

[N-]=[N+]=N[C@@H]1C(=O)N(c2ccc(Cl)cc2)[C@@H]1/C=C/c1ccccc1
IC50 (Plasmodium falciparum [1]): 4.47 µM

[N-]=[N+]=N[C@@H]1C(=O)N(C2CCCCC2)[C@@H]1/C=C/c1ccccc1
IC50 (Plasmodium falciparum [1]): 2.36 µM

[N-]=[N+]=N[C@@H]1C(=O)N(Cc2ccccc2)[C@@H]1/C=C/c1ccccc1
IC50 (Plasmodium falciparum [1]): 4.7 µM

N[C@@H]1C(=O)N(c2ccc(Cl)cc2)[C@@H]1/C=C/c1ccccc1
IC50 (Plasmodium falciparum [1]): 38.1 µM

N[C@@H]1C(=O)N(C2CCCCC2)[C@@H]1/C=C/c1ccccc1
IC50 (Plasmodium falciparum [1]): 18.6 µM

Cc1ccc(N2C(=O)[C@@H](N)[C@H]2/C=C/c2ccccc2)cc1
IC50 (Plasmodium falciparum [1]): 59.9 µM

N[C@@H]1C(=O)N(c2ccccc2)[C@@H]1/C=C/c1ccccc1
IC50 (Plasmodium falciparum [1]): 29.3 µM

COC(=O)c1nnn([C@@H]2C(=O)N(c3ccc(C)cc3)[C@@H]2/C=C/c2ccccc2)c1C(=O)OC
IC50 (Plasmodium falciparum [2]): > 20 µM

COC(=O)c1nnn([C@@H]2C(=O)N(C3CCCCC3)[C@@H]2/C=C/c2ccccc2)c1C(=O)OC
inhibition of growth at 100 µM (KB [3]): 8.07%
IC50 (KB [4]): > 228 µM
inhibition of growth at 10 µM (KB [5]): -7.7%
IC50 (Plasmodium falciparum [6]): > 45.7 µM
IC50 (Plasmodium falciparum [7]): > 45.7 µM
IC50 (Plasmodium falciparum [2]): > 20 µM

COC(=O)c1nnn([C@@H]2C(=O)N(c3ccc(Cl)cc3)[C@@H]2/C=C/c2ccccc2)c1C(=O)OC
inhibition of growth at 100 µM (KB [3]): 56.5%
IC50 (KB [4]): 145 µM
inhibition of growth at 10 µM (KB [5]): 19.5%
IC50 (Plasmodium falciparum [6]): 12.3 µM
IC50 (Plasmodium falciparum [7]): 25.1 µM
IC50 (Plasmodium falciparum [2]): > 20 µM

O=C1[C@@H](n2cc(-c3ccccc3)nn2)[C@@H](/C=C/c2ccccc2)N1c1ccccc1
inhibition of growth at 100 µM (KB [3]): 58.3%
IC50 (KB [4]): 91.2 µM
inhibition of growth at 10 µM (KB [5]): 10%
IC50 (Plasmodium falciparum [6]): > 51 µM
IC50 (Plasmodium falciparum [7]): > 51 µM
IC50 (Plasmodium falciparum [2]): 11.7 µM

O=C1[C@@H](n2cc(-c3ccccc3)nn2)[C@@H](/C=C/c2ccccc2)N1C1CCCCC1
inhibition of growth at 100 µM (KB [3]): 99.7%
IC50 (KB [4]): 8.36 µM
inhibition of growth at 10 µM (KB [5]): 76.8%
IC50 (Plasmodium falciparum [6]): 1.21 µM
IC50 (Plasmodium falciparum [7]): 1.13 µM
IC50 (Plasmodium falciparum [2]): 1 µM

O=C1[C@@H](n2cc(-c3ccccc3)nn2)[C@@H](/C=C/c2ccccc2)N1c1ccc(Cl)cc1
inhibition of growth at 100 µM (KB [3]): 79.3%
IC50 (KB [4]): 84.2 µM
inhibition of growth at 10 µM (KB [5]): 16.8%
IC50 (Plasmodium falciparum [6]): 7.09 µM
IC50 (Plasmodium falciparum [7]): 7.86 µM
IC50 (Plasmodium falciparum [2]): 1 µM

Cc1ccc(N2C(=O)[C@@H](n3cc(-c4ccccc4)nn3)[C@H]2/C=C/c2ccccc2)cc1
inhibition of growth at 100 µM (KB [3]): 80.8%
IC50 (KB [4]): 89.2 µM
inhibition of growth at 10 µM (KB [5]): 14.7%
IC50 (Plasmodium falciparum [6]): 3.42 µM
IC50 (Plasmodium falciparum [7]): 12 µM
IC50 (Plasmodium falciparum [2]): 1 µM

CCN(CC)CCCC(C)Nc1ccnc2cc(Cl)ccc12 (stereo unspecified) [CHLOROQUINE]
inhibition of growth at 100 µM (KB [3]): 97%
IC50 (KB [4]): 36 µM
inhibition of growth at 10 µM (KB [5]): 31.4%

COc1cc([C@@H]2c3cc4c(cc3[C@H](O)[C@H]3COC(=O)[C@H]23)OCO4)cc(OC)c1OC [PODOFILOX]
inhibition of growth at 0.5 µM (KB [8]): 81.5%
IC50 (KB [4]): 0.0005 µM
